Like-named read-outs stand apart in the source and are kept apart here.
Columns and labels:
Sphaerotheca fuliginea = assay: Sphaerotheca test (cucumber) / protective; assay type: in vivo; conditions: Podosphaera fuliginea, 168 h, read-out: efficacy
Procedure: (§1) To produce a suitable preparation of active compound, 1 part by weight of active compound is mixed with the stated amounts of solvent and emulsifier, and the concentrate is diluted with water to the desired concentration.
(§2) To test for protective activity, young plants are sprayed with the active compound preparation at the stated application rate. After the spray coating has dried, the plants are inoculated with an aqueous spore suspension of Sphaerotheca fuliginea. The plants are then placed in a greenhouse at about 23° C. and a relative atmospheric humidity of about 70%.
Evaluation is carried out 7 days after the inoculation. 0% means an efficacy which corresponds to that of the control, whereas an efficacy of 100% means that no infection is observed.

Botrytis cinerea = assay: Botrytis test (bean) / protective; assay type: in vivo; conditions: 48 h, read-out: efficacy
Procedure: as §1
To test for protective activity, young plants are sprayed with the active compound preparation at the stated application rate. After the spray coating has dried on, 2 small pieces of agar overgrown with Botrytis cinerea are placed on each leaf. The inoculated plants are then placed in a darkened chamber at about 20° C. and 100% relative atmospheric humidity.
Two days after the inoculation the size of the infected spots on the leaves is evaluated. 0% means an efficacy which corresponds to that of the control, whereas an efficacy of 100% means that no infection is observed.

Puccinia recondita = assay: Puccinia test (wheat) / protective; assay type: in vivo; conditions: 240 h, read-out: efficacy
Procedure: as §1
To test for protective activity, young plants are sprayed with the active compound preparation at the stated application rate. After the spray coating has dried on, the plants are sprayed with a conidia suspension of Puccinia recondita. The plants remain in an incubation cabin at 20° C. and 100% relative atmospheric humidity for 48 hours.
The plants are then placed in a greenhouse at a temperature of about 20° C. and a relative atmospheric humidity of 80% to promote the development of rust pustules.
(§3) Evaluation is carried out 10 days after the inoculation. 0% means an efficacy which corresponds to that of the control, whereas an efficacy of 100% means that no infection is observed.

Podosphaera leucotricha = assay: Podosphaera test (apple) / protective; assay type: in vivo; conditions: 240 h, read-out: efficacy
Procedure: as §1
as §2, with “dried on,” for “dried,”, “the apple mildew pathogen Podosphaera leucotricha.” for “Sphaerotheca fuliginea.”
as §3

Uromyces appendiculatus = assay: Uromyces test (bean) / protective; assay type: in vivo; conditions: 240 h, read-out: efficacy
Procedure: as §1
To test for protective activity, young plants are sprayed with the active compound preparation at the stated application rate. After the spray coating has dried on, the plants are inoculated with an aqueous spore suspension of the bean rust pathogen Uromyces appendiculatus and then remain in an incubation cabin at about 20° C. and 100% relative atmospheric humidity for 1 day.
The plants are then placed in a greenhouse at about 21° C. and a relative atmospheric humidity of about 90%.
as §3

[1] = cucumber plants, protective spray, active compound concentration 100 ppm, evaluation 7 days after inoculation
[2] = bean plants, protective spray, active compound concentration 10 ppm, evaluation 10 days after inoculation
[3] = bean plants, protective spray, active compound concentration 250 ppm, evaluation two days after inoculation
[4] = wheat plants, protective spray, active compound concentration 1000 ppm, evaluation 10 days after inoculation
[5] = apple plants, protective spray, active compound concentration 100 ppm, evaluation 10 days after inoculation

Cc1cc(Oc2ccc(-c3ccccc3C)cc2)c(C)cc1/N=C/N1CCCCC1 [Compound 24]
pest or weed control at 100 ppm (Sphaerotheca fuliginea): ≥ 70%
logP (logP (acidic, pH 2.3); pH 2.3): 3.22
pest or weed control at 250 ppm (Botrytis cinerea): ≥ 70%
pest or weed control at 1000 ppm (Puccinia recondita): ≥ 70%
pest or weed control at 100 ppm (Podosphaera leucotricha): ≥ 70%

CCN(C)C=Nc1cc(C)c(Oc2ccc(-c3ccccc3C(F)(F)F)cc2)cc1C [Compound 14]
pest or weed control at 100 ppm (Sphaerotheca fuliginea): ≥ 70%
logP (logP (acidic, pH 2.3); pH 2.3): 2.77
pest or weed control at 250 ppm (Botrytis cinerea): ≥ 70%
pest or weed control at 1000 ppm (Puccinia recondita): ≥ 70%
pest or weed control at 100 ppm (Podosphaera leucotricha): ≥ 70%

COc1ccc(-c2ccc(Oc3cc(C)c(N)cc3C)cc2)cc1 [4-[4-(4-Methoxyphenyl)phenoxy]-2,5-dimethylaniline]
logP (logP (acidic, pH 2.3); pH 2.3, log P (pH 2.3), pH 2.3): 3.06

CCN(C)C=Nc1cc(C)c(Oc2ccc(-c3ccc(OC)cc3)cc2)cc1C [Compound 5, N-ethyl-N′-{4-[(4′-methoxybiphenyl-4-yl)oxy]-2,5-dimethylphenyl}-N-methylimidoformamide]
pest or weed control at 100 ppm (Sphaerotheca fuliginea; [1]): ≥ 70%
logP (logP (acidic, pH 2.3); pH 2.3, log P (pH 2.3), pH 2.3): 2.57
logP (logP (acidic, pH 2.3); pH 2.3, logP acidic, acidic): 2.47
pest or weed control at 10 ppm (Uromyces appendiculatus; [2]): ≥ 70%
pest or weed control at 250 ppm (Botrytis cinerea; [3]): ≥ 70%
pest or weed control at 1000 ppm (Puccinia recondita; [4]): ≥ 70%
pest or weed control at 100 ppm (Podosphaera leucotricha; [5]): ≥ 70%

Cc1cc(Oc2ccc(C3CCCCC3)cc2)c(C)cc1/N=C/N1CCCCC1 [Compound 41, 4-(4-cyclohexylphenoxy)-2,5-dimethyl-N-[(1E)-piperidin-1-ylmethylene]aniline]
pest or weed control at 100 ppm (Sphaerotheca fuliginea; [1]): ≥ 70%
logP (logP (acidic, pH 2.3); pH 2.3, logP acidic, acidic): 3.46
pest or weed control at 10 ppm (Uromyces appendiculatus; [2]): ≥ 70%
pest or weed control at 250 ppm (Botrytis cinerea; [3]): ≥ 70%
pest or weed control at 1000 ppm (Puccinia recondita; [4]): ≥ 70%
pest or weed control at 100 ppm (Podosphaera leucotricha; [5]): ≥ 70%

CCN(C)C=Nc1cc(C)c(Oc2ccc(-c3ccc(C(C)=O)cc3)cc2)cc1C [Compound 8, N′-{4-[(4′-acetylbiphenyl-4-yl)oxy]-2,5-dimethylphenyl}-N-ethyl-N-methylimidoformamide]
pest or weed control at 100 ppm (Sphaerotheca fuliginea; [1]): ≥ 70%
logP (logP (acidic, pH 2.3); pH 2.3, logP acidic, acidic): 2.32
pest or weed control at 10 ppm (Uromyces appendiculatus; [2]): ≥ 70%
pest or weed control at 100 ppm (Podosphaera leucotricha; [5]): ≥ 70%

CCc1ccccc1-c1ccc(Oc2cc(C)c(/N=C/N3CCCCC3)cc2C)cc1 [Compound 23]
pest or weed control at 100 ppm (Sphaerotheca fuliginea): ≥ 70%
logP (logP (acidic, pH 2.3); pH 2.3): 3.34
pest or weed control at 250 ppm (Botrytis cinerea): ≥ 70%
pest or weed control at 1000 ppm (Puccinia recondita): ≥ 70%
pest or weed control at 100 ppm (Podosphaera leucotricha): ≥ 70%

CCN(C)C=Nc1cc(C)c(Oc2ccc(-c3ccccc3)cc2)cc1C [Compound 31, N′-[4-(biphenyl-4-yloxy)-2,5-dimethylphenyl]-N-ethyl-N-methylimidoformamide]
logP (logP (acidic, pH 2.3); pH 2.3, logP acidic, acidic): 2.64

Cc1cc(Oc2ccc(-c3ccccc3C(F)(F)F)cc2)c(C)cc1/N=C/N1CCCCC1 [Compound 20]
pest or weed control at 100 ppm (Sphaerotheca fuliginea): ≥ 70%
logP (logP (acidic, pH 2.3); pH 2.3): 2.93
pest or weed control at 250 ppm (Botrytis cinerea): ≥ 70%
pest or weed control at 1000 ppm (Puccinia recondita): ≥ 70%
pest or weed control at 100 ppm (Podosphaera leucotricha): ≥ 70%

Cc1cc(Oc2ccc(C3CCCCC3)cc2)c(C)cc1N=CN(C)C(C)C [Compound 39, N′-{4-[4-cyclohexyl-phenoxy]-2,5-dimethylphenyl}-N-isopropyl-N-methylimidoformamide]
logP (logP (acidic, pH 2.3); pH 2.3, logP acidic, acidic): 3.2

CCN(C)C=Nc1cc(C)c(Oc2ccc(-c3ccc(/C=N/OC)cc3)cc2)cc1C [Compound 12]
logP (logP (acidic, pH 2.3); pH 2.3): 2.75

Cc1cc(Oc2ccc(C3CCCC3)cc2)c(C)cc1/N=C/N1CCCCC1 [Compound 35, 4-(4-cyclopentylphenoxy)-2,5-dimethyl-N-[(1E)-piperidin-1-ylmethylene]aniline]
pest or weed control at 100 ppm (Sphaerotheca fuliginea; [1]): ≥ 70%
logP (logP (acidic, pH 2.3); pH 2.3, logP acidic, acidic): 3.13
pest or weed control at 10 ppm (Uromyces appendiculatus; [2]): ≥ 70%
pest or weed control at 250 ppm (Botrytis cinerea; [3]): ≥ 70%
pest or weed control at 1000 ppm (Puccinia recondita; [4]): ≥ 70%

Cc1cc(Oc2ccc(-c3ccccc3F)cc2)c(C)cc1/N=C/N1CCCCC1 [Compound 21]
logP (logP (acidic, pH 2.3); pH 2.3): 2.98
pest or weed control at 1000 ppm (Puccinia recondita): ≥ 70%

CCN(C)C=Nc1cc(C)c(Oc2ccc(-c3ccccc3OC)cc2)cc1C [Compound 19]
pest or weed control at 100 ppm (Sphaerotheca fuliginea): ≥ 70%
logP (logP (acidic, pH 2.3); pH 2.3): 2.49
pest or weed control at 10 ppm (Uromyces appendiculatus): ≥ 70%
pest or weed control at 250 ppm (Botrytis cinerea): ≥ 70%
pest or weed control at 1000 ppm (Puccinia recondita): ≥ 70%
